From patent US6126909A, “Process and apparatus for the production of BI-212 and a use thereof” (Arch Development Corporation, priority 1999, dated 2000)

How the values were obtained:
microscopic carcinoma = details: in vivo; cited from earlier work
NIH:OVCAR-3 cells = test: In vitro irradiation survival (clonogenic), monolayer; type: cell-based, human; details: OVCAR-3 monolayer
Description: (§1) In vitro studies were carried out using three well known cell lines, the cells from which were exposed to radiation from: (1) an X-ray source; (2) P-32 chromic phosphate; and (3) Bi-212 chloride. The three cell lines that were used are V-79, which is a Chinese hamster lung fibroblast, Ehrlich-Lettre Ascites carcinoma (ATCC CCL 77), which is an ascites producing -tumor, and NIH:OVCAR-3 (ATCC HTB 161), which is a human ovarian adenocarcinoma. These well known cell lines are predictive of what happens in vivo. The cells were grown as monolayers and into spheroid formations and subsequently irradiated, as described herein.
(§2) The V-79 cells were maintained under exponential growth conditions in minimal essential medium (MEM) supplemented with 10 percent fetal bovine serum. The Ehrlich-Lettre Ascites carcinoma cells were maintained in 90 percent NCTC 109 supplemented with 10 percent fetal bovine serum. The NIH:OVCAR-3 cells were maintained in RPMI 1640 and 10 percent fetal bovine serum.
(§3) Cells from each of the cell lines were irradiated by subjecting the cells to X-ray radiation, P-32, and Bi-212. The X-ray source that was used is a General Electric 250 kvp Maxitron, 26 […] (mA) (HVL 1.5 mm Cu) operated at a dose rate of 1.11 Greys per minute (Gy/min). The cells, in both monolayer and spheroid form were exposed at room temperature and then immediately plated for survival.
(§4) Cells in both monolayer and spheroid were exposed to P-32 chromic phosphate. The radiation dose to each sample was calculated as: […]
(§5) After exposure, the cells were washed in phosphate-buffered saline (PBS) and immediately plated for survival.
(§6) The cell lines were also irradiated using Bi-212. Bismuth-212 was eluted from a generator as described in the aforementioned patent to Atcher et al., which was a cation-exchange column supporting Ra-224, with 1 ml of 0.15 N HI, and the generator was purged with 2 ml of distilled deionized water. […] The filter was purged with 1 ml of distilled deionized water, and the radioactivity was assayed using a calibrated 3×3-in. […]
(§7) Cells were exposed over a period of four hours. The dose (D) per microCurie was calculated and corrected for decay as follows: [formula] where V=volume in milliliters, and […]
(§8) Following plating, survival measurements were taken for each of the irradiated cell samples. […] The plates were then stained with crystal violet and colonies greater than 50 cells were scored. The surviving fraction was then determined.
(§9) Intrinsic radiosensitivity (Do) was calculated from the survival curves. […] Relative biological effectiveness (RBE) was determined as the ratio of the absorbed dose of X-ray to that of alpha radiation to produce the same degree of biological effect.

V-79 cells = test: as above; type: cell-based, Chinese hamster; details: V-79 monolayer
Description: as §1, §2, §3, §4, §5, §6, §7, §8, §9

[1] = tested on: NIH:OVCAR-3 cells (spheroids); test: In vitro irradiation survival, spheroids; type: cell-based, human; details: OVCAR-3 spheroids
Description: as §1, §2
To initiate the formation of the spheroids, cells at a concentration of about 500,000 cells per flask were seeded onto petri dishes base-cooked with 1 percent agar MEM without serum. After spheroids having a size of about 20 micrometers (μm) formed, the spheroids were transferred to spinner bottles and maintained for two to three weeks at a temperature of 37° C. in a CO2 incubator until they grew to 10 to 1000 μm. Prior to irradiation, the spheroids were sized and separated using a spheroid separation column.
as §3, §4, §5
The cell lines were also irradiated using Bi-212. […] The filter was purged with 1 ml of distilled deionized water, and the radioactivity was assayed using a calibrated 3×3-in. […]
as §7, §8
Intrinsic radiosensitivity (Do) was calculated from the survival curves. […]

[2] = tested on: microscopic disease (ovarian carcinoma); details: stage I and stage II patients; cited from earlier work
[3] = dose increment reducing survival to 37 percent

SMILES: [211At] [At-211, astatine-211]
- Treatment and eradication of microscopic carcinoma (microscopic carcinoma): effective in the treatment and eradication of microscopic carcinoma

SMILES: [212Pb] [Pb-212, lead-212]
- Treatment and eradication of microscopic carcinoma (microscopic carcinoma): effective in the treatment and eradication of microscopic carcinoma

SMILES: O=[32P]([O-])([O-])[O-].[Cr+3] [P-32 chromic phosphate, chromic phosphate (P-32), reference compound]
- D0 (intrinsic radiosensitivity) (NIH:OVCAR-3 cells; [3]): 1.40 Gy
- Relative biological effectiveness (RBE) (NIH:OVCAR-3 cells; relative to X-ray): 1.43
- D0 (intrinsic radiosensitivity) (V-79 cells; [3]): 1.25 Gy
- Relative biological effectiveness (RBE) (V-79 cells; relative to X-ray): 1.63
- D0 (intrinsic radiosensitivity) ([1]; dose to 37 percent survival): 1.1 Gy
- Relative biological effectiveness (RBE) ([1]; relative to X-ray): 1.07
- Five-year survival rate [2]: 81%
